Measured values published in ChEMBL document CHEMBL1136246, “Structure activity studies of a novel cytotoxic benzodiazepine” (Bioorg Med Chem Lett, 2003).

Columns and labels:
Ramos [1] = test: Inhibition of Ramos B cells death in the presence of 20 uM methylating phenol (Compound 20); type: functional, Homo sapiens
Ramos [2] = test: Inhibition of Ramos B cells death in the presence of FK506 (1 uM); type: functional, Homo sapiens
Ramos [3] = test: Lymphotoxic activity against immortalized Ramos B cells in culture; type: functional, cell-based; details: Homo sapiens

| Structure (SMILES) | Inhibition (Ramos [1]) | Inhibition (Ramos [2]) | EC50 (Ramos [3]) |
| --- | --- | --- | --- |
| CN1C(=O)C(Cc2cccc(-c3ccccc3)c2)N=C(c2ccc(O)cc2)c2cc(Cl)ccc21 (stereo unspecified) | 81% | 77% | 4 µM |
| Cc1ccc(C)c(CC2N=C(c3ccc(O)cc3)c3cc(Cl)ccc3N(C)C2=O)c1 (stereo unspecified) | 23% | 80% | 7 µM |
| CN1C(=O)C(Cc2ccc(-c3ccccc3)cc2)N=C(c2ccc(O)cc2)c2cc(Cl)ccc21 (stereo unspecified) | 69% | 74% | 7 µM |
| CN1C(=O)C(Cc2cccc3ccccc23)N=C(c2ccc(O)cc2)c2cc(Cl)ccc21 (stereo unspecified) | 67% | 72% | 5 µM |
| CN1C(=O)C(Cc2ccc(F)c(F)c2)N=C(c2ccc(O)cc2)c2cc(Cl)ccc21 (stereo unspecified) | 0% | 59% | 10 µM |
| CN1C(=O)C(Cc2ccc3ccccc3c2)N=C(c2cccc(O)c2)c2cc(Cl)ccc21 (stereo unspecified) | 0% | 70% | 6 µM |
| CN1C(=O)C(Cc2cc3ccccc3cn2)N=C(c2ccc(O)cc2)c2cc(Cl)ccc21 (stereo unspecified) | 0% | 42% | 10 µM |
| CN1C(=O)C(Cc2ccc3ncccc3c2)N=C(c2ccc(O)cc2)c2cc(Cl)ccc21 (stereo unspecified) | 0% | 20% | 13 µM |
| CN1C(=O)C(Cc2ccc(OC(F)(F)F)cc2)N=C(c2ccc(O)cc2)c2cc(Cl)ccc21 (stereo unspecified) | 0% | 17% | 30 µM |
| CN1C(=O)C(Cc2cccc(O)c2)N=C(c2ccc(O)cc2)c2cc(Cl)ccc21 (stereo unspecified) | 20% | 14% | 22 µM |
| CN1C(=O)C(Cc2ccccc2)N=C(c2ccc(O)cc2)c2cc(Cl)ccc21 (stereo unspecified) | 0% | 4% | 12 µM |
| CN1C(=O)C(Cc2cnc3ccccc3c2)N=C(c2ccc(O)cc2)c2cc(Cl)ccc21 (stereo unspecified) | 4% | 39% | 11 µM |
| CN1C(=O)C(Cc2ccc(C(C)(C)C)cc2)N=C(c2ccc(O)cc2)c2cc(Cl)ccc21 (stereo unspecified) | 55% | 91% | 3 µM |
| COc1ccc(C2=NC(Cc3ccc4ccccc4c3)C(=O)N(C)c3ccc(Cl)cc32)cc1 (stereo unspecified) |  |  | > 80 µM |
| CN1C(=O)C(Cc2ccc3ccccc3c2)N=C(c2ccc(Cl)cc2)c2cc(Cl)ccc21 (stereo unspecified) |  |  | > 80 µM |
| Cc1cc(C2=NC(Cc3ccc4ccccc4c3)C(=O)N(C)c3ccc(Cl)cc32)ccc1O (stereo unspecified) | 87% | 78% | 3 µM |
| CN1C(=O)C(Cc2ccc3ccccc3c2)N=C(c2ccc(N=[N+]=[N-])cc2)c2cc(Cl)ccc21 (stereo unspecified) |  |  | > 80 µM |
| Cc1ccc(CC2N=C(c3ccc(O)cc3)c3cc(Cl)ccc3N(C)C2=O)cc1C (stereo unspecified) | 29% | 78% | 7 µM |
| CN1C(=O)CN=C(c2ccccc2)c2cc(Cl)ccc21 [DIAZEPAM] |  |  | > 80 µM |
| CCC(C)N(C)C(=O)c1cc2ccccc2c(-c2ccccc2Cl)n1 (stereo unspecified) [PK-11195] |  |  | > 80 µM |
| CN1C(=O)CN=C(c2ccc(Cl)cc2)c2cc(Cl)ccc21 [RO-54864] |  |  | > 80 µM |
